Results reported in patent US20220088004A1, “COMPOSITION FOR COMPETITIVE INHIBITION OF OREXIN RECEPTORS” (SUNTORY HOLDINGS LIMITED, priority 2019, published 2022).

Tests used:
orexin receptor [1] = settings: injection; amyloid precursor protein transgenic mice; cited from earlier work
HEK293T cells = test: WST-8 Cell Proliferation Assay (dehydrogenase activity, cell growth); assay type: cell-based; settings: 100 μg/mL, HEK293T cells of Example 1; compared to positive and negative control; FIG. 2
Experimental: For the pyrroloquinoline quinone disodium salt-added group in Example 1, WST-8 Cell Proliferation Assay Kit (Cayman Chemical Company) was used to confirm the cell growth after addition of pyrroloquinoline quinone disodium salt. The measurement was performed by a method according to an attached protocol. The dehydrogenase activity is known to be in proportion to the number of live cells. The kit utilizes this principle and measures the dehydrogenase activity released in the medium from the cells.

Orexin 2 Receptor = Orexin 2 Receptor (Homo sapiens, UniProt O43614); settings: 100 μg/mL test substance, 1 h pre-incubation, then 50 nM orexin-A for 24 hours; HEK293T cells; n=3; FIG. 1
Experimental: The orexin receptor antagonist activity of a test substance was measured using an accessory to Orexin 2 Receptor Reporter Assay Kit (Cayman Chemical Company).
In this evaluation system, cells that express orexin receptors at cell surfaces are used. Binding of the agonist (orexin) to the orexin receptor causes secretion of secreted alkaline phosphatase (SEAP). Secreted SEAP is reacted with an alkaline phosphatase substrate, and the enzyme activity of SEAP is measured using a luminometer. A substance having orexin receptor antagonist action reduces the enzyme activity.
(1) HEK293T cells were prepared at a concentration of 2.5×10^5 cells/mL using Dulbecco's modified Eagle medium (high glucose content) (Dulbecco's Modified Eagle's Medium-high glucose, with 4500 mg/L glucose, L-glutamine, sodium pyruvate, and sodium bicarbonate, liquid, sterile-filtered, suitable for cell culture) (Sigma-Aldrich) to which fetal bovine serum (FBS) was added to a final concentration of 10%.
(2) The medium containing HEK293T cells prepared in (1) was seeded at 200 μL per well in Orexin 2 Receptor Reverse Transfection Strip Plate.
(3) Incubation was performed at 5% CO2 and 37° C. for 16 hours. […]
(7) The enzyme (SEAP) activity of the supernatant was measured in accordance with a protocol attached to Orexin 2 Receptor Reporter Assay Kit (Cayman Chemical Company). […]

orexin receptor [2] = settings: intake of suvorexant; cited from earlier work
orexin receptor [3] = settings: during glucose tolerance test; cited from earlier work

Chain of Orexin 2 Receptor (O43614 whole entry): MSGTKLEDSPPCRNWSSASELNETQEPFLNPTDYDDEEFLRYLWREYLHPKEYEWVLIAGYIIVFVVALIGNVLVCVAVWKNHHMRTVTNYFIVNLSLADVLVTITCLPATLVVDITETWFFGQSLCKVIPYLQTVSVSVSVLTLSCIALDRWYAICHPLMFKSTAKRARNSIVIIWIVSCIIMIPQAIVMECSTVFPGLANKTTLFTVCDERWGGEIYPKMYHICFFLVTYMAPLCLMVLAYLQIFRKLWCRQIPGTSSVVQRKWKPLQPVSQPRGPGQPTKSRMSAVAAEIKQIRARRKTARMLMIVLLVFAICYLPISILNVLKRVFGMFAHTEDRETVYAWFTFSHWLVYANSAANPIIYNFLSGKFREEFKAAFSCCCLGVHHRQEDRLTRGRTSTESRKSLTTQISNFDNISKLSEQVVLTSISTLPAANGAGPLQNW

For CNC(=O)[C@@H](c1ccccc1)N1CCc2cc(OC)c(OC)cc2[C@@H]1CCc1ccc(C(F)(F)F)cc1 [almorexant], the “amyloid β level and amyloid plaque formation” value (orexin receptor [1]) is given as “decrease in amyloid β level and in amyloid plaque formation”.
In the case of O=C(O)c1cc(C(=O)O)c2c(n1)C(=O)C(=O)c1cc(C(=O)O)[nH]c1-2.[Na].[Na] [pyrroloquinoline quinone disodium salt], the “number of cells (dehydrogenase activity relative to negative control)” value (HEK293T cells) is reported as “did not show a decrease in the number of cells” and the “orexin receptor antagonist action (SEAP enzyme activity relative to negative control)” value (Orexin 2 Receptor) is reported as “orexin receptor antagonist action equivalent to that exerted by addition of 1 μM suvorexant”.
For Cc1ccc(-n2nccn2)c(C(=O)N2CCN(c3nc4cc(Cl)ccc4o3)CC[C@H]2C)c1 [suvorexant], the “sleep latency, wake after sleep onset, total sleep duration, sleep efficiency” value (orexin receptor [2]) is given as “decreased sleep latency and objective wake after sleep onset and have increased total sleep duration and sleep efficiency” and the “rise in blood sugar levels” value (orexin receptor [3]) is given as “suppressing the rise in blood sugar levels”.
